Measured values from patent publication US6462055B2, “Alpha-methylbenzyl-containing thiourea inhibitors of herpes viruses containing a phenylenediamine group” (Wyeth, priority 1998, dated 2002).
In brackets after ≈: the same amount, converted by molar mass.

Experiments:
[1] = test system: HCMV recombinant mutant virus (RV145); assay: microbe, parasite or virus in culture; assay type: cell-based, human cytomegalovirus; details: HCMV
Outline: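 Read-out is beta-glucuronidase activity in cell lysates 96 h after infection, measured colorimetrically or fluorometrically. Reporter virus RV145 expresses the enzyme under a viral promoter in human foreskin fibroblasts treated with inhibitor.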

[2] = test system: HSV-1; assay: HSV Antiviral (ELISA) Assay in Vero cells; assay type: cell-based, herpes simplex virus type 1; details: HSV-1, Vero cells
Outline: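 Viral replication was quantified by cell-fixed ELISA for HSV glycoprotein D, using a β-galactosidase reporter and fluorogenic umbelliferyl substrate, about 24 h after HSV-1 infection (MOI 0.006) of Vero cells. Compounds, at several concentrations, were added 30 min pre-infection. IC50 was derived from fluorescence relative to the compound-free signal.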

[3] = test system: VZV strain Ellen; assay: VZV Antiviral (ELISA) Assay in human foreskin fibroblast cells; assay type: cell-based, varicella-zoster virus
Outline: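 Low-MOI (<0.1) Ellen infection of HFF overnight; cell mix plated 3.5×10^4/well with compound, DMEM + 2% FBS, 3 d, 37° C, 5% CO2. Fix, anti-gpII mAb ELISA, MUG substrate, fluorescence. IC50 vs compound-free signal.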

| Compound | IC50 ug/ml HCMV [1] | IC50 (ug/ml) HSV [2] | IC50 (ug/ml) VZV [3] | % inhibition 10 ug/ml VZV [3] |
| --- | --- | --- | --- | --- |
| COc1cc(C)c(Cl)cc1NC(=S)Nc1ccc(NC(=O)c2c(F)cccc2F)cc1 [Example 333] | 2.5 µg/mL (≈ 5.41 µM) | 0.04 µg/mL (≈ 0.0866 µM) | 4.5 µg/mL (≈ 9.74 µM) | 92% |
| CN1CCC(N(C)c2ccc(NC(=S)Nc3ccc(NC(=O)c4c(F)cccc4F)cc3)cc2Cl)CC1 [Example 340] | 0.25 µg/mL (≈ 0.459 µM) | 3 µg/mL (≈ 5.51 µM) | 4 µg/mL (≈ 7.35 µM) | 99% |
| CSc1ccc(NC(=S)Nc2ccc(NC(=O)c3ccccc3C)cc2)cc1Cl [Example 342] | 1.4 µg/mL (≈ 3.17 µM) | 0.2 µg/mL (≈ 0.452 µM) | >10 µg/mL | 62% |
| Cc1ccccc1C(=O)Nc1ccc(NC(=S)Nc2ccc(N(C)C)c(Cl)c2)cc1 [Example 346] | 2 µg/mL (≈ 4.56 µM) | 6 µg/mL (≈ 13.7 µM) | >10 µg/mL | 62% |
| CN(C)c1ccc(NC(=S)Nc2ccc(NC(=O)c3c(F)cccc3F)cc2)cc1Cl [Example 348] | 0.8 µg/mL (≈ 1.74 µM) | 4 µg/mL (≈ 8.68 µM) | 8 µg/mL (≈ 17.4 µM) | 95% |
| CN1CCC(N(C)c2ccc(NC(=S)Nc3ccc(NC(=O)c4c(F)cccc4F)cc3)cc2Cl)C1 (centres unmarked) [Example 349] | 1.2 µg/mL (≈ 2.26 µM) | 5 µg/mL (≈ 9.43 µM) | 4 µg/mL (≈ 7.55 µM) | 110% |
| COc1cc(OC)c(NC(=S)Nc2ccc(NC(=O)c3ccccc3F)cc2Cl)cc1Cl [Example 355] | >10 µg/mL | 0.035 µg/mL (≈ 0.0708 µM) | >10 µg/mL | 40% |
| O=C(Nc1ccc(NC(=S)Nc2ccc(SC3CCCCC3)c(Cl)c2)cc1)c1ccccc1F [Example 357] | 9 µg/mL (≈ 17.5 µM) | >10 µg/mL | 40 µg/mL (≈ 77.8 µM) | 44% |
| CN(C)CC(=O)Nc1ccc(NC(=S)Nc2ccc(NC(=O)c3ccccc3F)cc2)cc1Cl [Example 362] | >10 µg/mL | >10 µg/mL | >10 µg/mL | 8% |
| O=C(CN1CCCCC1)Nc1ccc(NC(=S)Nc2ccc(NC(=O)c3ccccc3F)cc2)cc1Cl [Example 364] | >10 µg/mL | >10 µg/mL | >15 µg/mL | 73% |
| O=C(CN1CCOCC1)Nc1ccc(NC(=S)Nc2ccc(NC(=O)c3ccccc3F)cc2)cc1Cl [Example 367] | >10 µg/mL | >10 µg/mL | >10 µg/mL | 20% |
| CS(=O)(=O)Nc1ccc(NC(=S)Nc2ccc(NC(=O)c3ccccc3F)cc2)cc1Cl [Example 370] | >10 µg/mL | >10 µg/mL | >10 µg/mL | 16% |
| CN(C)CCSCC(=O)Nc1ccc(NC(=S)Nc2ccc(NC(=O)c3ccccc3F)cc2)cc1Cl [Example 373] | 6 µg/mL (≈ 10.7 µM) | 9 µg/mL (≈ 16.1 µM) | >10 µg/mL | 4% |
| Cc1ccccc1C(=O)Nc1ccc(NC(=S)Nc2ccc(N(C)C3CCN(Cc4ccccc4)C3)c(Cl)c2)cc1 (centres unmarked) [Example 374] | 3 µg/mL (≈ 5.14 µM) | 3 µg/mL (≈ 5.14 µM) | 4 µg/mL (≈ 6.85 µM) | 70% |
| Cc1ccccc1C(=O)Nc1ccc(NC(=S)Nc2ccc(N(C)C3CCN(C)CC3)c(Cl)c2)cc1 [Example 375] | 1.5 µg/mL (≈ 2.87 µM) | 5 µg/mL (≈ 9.58 µM) | 7 µg/mL (≈ 13.4 µM) | 95% |
| O=C(Nc1ccc(NC(=S)Nc2ccc(Cl)c(C(F)(F)F)c2)cc1)c1c(F)cccc1F [Example 380] | >10 µg/mL | >10 µg/mL | >10 µg/mL | 50% |
| CCSc1ccc(NC(=S)Nc2ccc(NC(=O)c3ccccc3F)cc2)cc1Cl [Example 386] | 2 µg/mL (≈ 4.35 µM) | >10 µg/mL | >10 µg/mL | 29% |
| CCCCSc1ccc(NC(=S)Nc2ccc(NC(=O)c3ccccc3F)cc2)cc1Cl [Example 387] | >10 µg/mL | >10 µg/mL | >10 µg/mL | 26% |
| CS(=O)(=O)c1ccc(NC(=S)Nc2ccc(NC(=O)c3c(F)cccc3F)cc2)cc1Cl [Example 392] | 0.5 µg/mL (≈ 1.01 µM) | >10 µg/mL | 2 µg/mL (≈ 4.03 µM) | 92% |

| Compound | IC50 ug/ml HCMV [1] | IC50 (ug/ml) HSV [2] | IC50 (ug/ml) VZV [3] | % inhibition 10 ug/ml VZV [3] |
| --- | --- | --- | --- | --- |
| CS(=O)(=O)c1ccc(NC(=S)Nc2ccc(NC(=O)c3c(F)cccc3F)cc2)cc1Cl [Example 393] | 0.5 µg/mL (≈ 1.01 µM) | >10 µg/mL | >10 µg/mL | 62% |
| Cc1ccc(NC(=S)Nc2ccc(NC(=O)c3ccccc3F)c(C)c2)cc1Cl [Example 395] | 3 µg/mL (≈ 7.01 µM) | 0.2 µg/mL (≈ 0.467 µM) | >10 µg/mL | 64% |
| CCOC(=O)Nc1ccc(NC(=S)Nc2ccc(NC(=O)c3ccccc3F)cc2)cc1Cl [Example 399] | 1.5 µg/mL (≈ 3.08 µM) | >10 µg/mL | >10 µg/mL | 59% |
| Nc1ccc(NC(=S)Nc2ccc(NC(=O)c3ccccc3F)cc2)cc1Cl [Example 404] | 8 µg/mL (≈ 19.3 µM) | 0.4 µg/mL (≈ 0.964 µM) | >10 µg/mL | 15% |
| O=C(CN1CCSCC1)Nc1ccc(NC(=S)Nc2ccc(NC(=O)c3ccccc3F)cc2)cc1Cl [Example 407] | >10 µg/mL | 4 µg/mL (≈ 7.17 µM) | 0.7 µg/mL (≈ 1.25 µM) | 87% |
| CCN(CC)CC(=O)Nc1ccc(NC(=S)Nc2ccc(NC(=O)c3ccccc3F)cc2)cc1Cl [Example 414] | >10 µg/mL | 6 µg/mL (≈ 11.4 µM) | >15 µg/mL | 70% |
| O=C(CN1CCCC1)Nc1ccc(NC(=S)Nc2ccc(NC(=O)c3ccccc3F)cc2)cc1Cl [Example 417] | >10 µg/mL | 6 µg/mL (≈ 11.4 µM) | >10 µg/mL | 15% |
| O=C(CN1CCCCCC1)Nc1ccc(NC(=S)Nc2ccc(NC(=O)c3ccccc3F)cc2)cc1Cl [Example 423] | 1 µg/mL (≈ 1.8 µM) | 4 µg/mL (≈ 7.22 µM) | 0.9 µg/mL (≈ 1.62 µM) | 87% |
| CC1CCCCN1CC(=O)Nc1ccc(NC(=S)Nc2ccc(NC(=O)c3ccccc3F)cc2)cc1Cl (centres unmarked) [Example 425] | 0.5 µg/mL (≈ 0.902 µM) | 3 µg/mL (≈ 5.41 µM) | >7.5 µg/mL | 103% |
| O=C(Nc1ccc(NC(=S)Nc2cccc(C(F)(F)F)c2)cc1)c1ccccc1F [Example 433] | >10 µg/mL | >10 µg/mL | >10 µg/mL | 0% |
| Nc1ccc(Cl)cc1NC(=S)Nc1ccc(NC(=O)c2ccccc2F)cc1 [Example 437] | >10 µg/mL | 0.05 µg/mL (≈ 0.121 µM) | 8 µg/mL (≈ 19.3 µM) | 0% |
| Nc1cc(Cl)cc(NC(=S)Nc2ccc(NC(=O)c3ccccc3F)cc2)c1 [Example 442] | 2 µg/mL (≈ 4.82 µM) | 1 µg/mL (≈ 2.41 µM) | 8 µg/mL (≈ 19.3 µM) | 81% |
| CC(O)c1cccc(NC(=S)Nc2ccc(NC(=O)c3ccccc3F)cc2)c1 (centres unmarked) [Example 448] | 9 µg/mL (≈ 22 µM) | >10 µg/mL | >10 µg/mL | 0% |
| CC(C)c1cccc(NC(=S)Nc2ccc(NC(=O)c3ccccc3F)cc2)c1 [Example 452] | 2 µg/mL (≈ 4.91 µM) | 4 µg/mL (≈ 9.82 µM) | 1 µg/mL (≈ 2.45 µM) | 75% |
| CN(C)c1cccc(NC(=S)Nc2ccc(NC(=O)c3ccccc3F)cc2)c1 [Example 454] | 4 µg/mL (≈ 9.79 µM) | 1.5 µg/mL (≈ 3.67 µM) | >10 µg/mL | 55% |
| COc1cc(C)c(Cl)cc1NC(=S)Nc1ccc(NC(=O)c2ccccc2F)cc1Cl [Example 458] | >10 µg/mL | 0.06 µg/mL (≈ 0.125 µM) | >10 µg/mL | 25% |
| Cc1ccc(NC(=S)Nc2ccc(NC(=O)c3ccccc3F)cc2Cl)cc1Cl [Example 459] | >10 µg/mL | 0.12 µg/mL (≈ 0.268 µM) | >10 µg/mL | 25% |
| CSc1ccc(NC(=S)Nc2ccc(NC(=O)c3ccccc3F)cc2Cl)cc1Cl [Example 460] | 2 µg/mL (≈ 4.16 µM) | 0.09 µg/mL (≈ 0.187 µM) | >10 µg/mL | 50% |
| N#Cc1cccc(NC(=S)Nc2ccc(NC(=O)c3ccccc3F)cc2)c1 [Example 461] | >10 µg/mL | >10 µg/mL | >10 µg/mL | 33% |
